# Activity calls are given as the source filed them. How the calls were made is not given here.
# Tested on: StAR promoter luciferase reporter cells, luminescence inhibition
# Experiment: nonselective StAR promoter luciferase inhibitors – cell-based, luminescence, dose response, counter-screen for LRH-1 inverse agonist project, late-stage follow-up (AID 651975)
row,Structure (SMILES),IC50
1,Cc1cccc(NC(=O)COC(=O)CN2C(=O)c3ccccc3C2=O)c1C,> 35.9 µM (inactive)
2,CCOc1ccc(NC(=O)COC(=O)CC2CCCCC2)cc1,> 35.9 µM (inactive)
3,COc1ccc(CCNC(=O)COC(=O)Cc2ccccc2[N+](=O)[O-])cc1,> 35.9 µM (inactive)
4,O=C(OCC(=O)N1CCN(C(=O)COC(=O)c2ccc(O)cc2O)CC1)c1ccc(O)cc1O,> 35.9 µM (inactive)
